Results as given in publication PMC4594013 (Frontiers in Pharmacology, 2015).
“Also recorded” adds a separate entry of the source. Counter-ions that a name gives are not always drawn.

Key:
[1] = target: T1, OAT2-tv1 (Homo sapiens, UniProt Q9Y694); design: The open reading frame of the human ortholog of OAT2 transcript variant 1 (OAT2-tv1) containing 546 amino acids was amplified from human kidney cDNA; expressed in transfected cells; host or cells: CHO Flp-In (A1); CHO, HEK and MDCK Flp-In (A2); conditions: ref Babelova et al., 2015; cited from earlier work
T1 sequence (Q9Y694 1-546 isoform Q9Y694-2): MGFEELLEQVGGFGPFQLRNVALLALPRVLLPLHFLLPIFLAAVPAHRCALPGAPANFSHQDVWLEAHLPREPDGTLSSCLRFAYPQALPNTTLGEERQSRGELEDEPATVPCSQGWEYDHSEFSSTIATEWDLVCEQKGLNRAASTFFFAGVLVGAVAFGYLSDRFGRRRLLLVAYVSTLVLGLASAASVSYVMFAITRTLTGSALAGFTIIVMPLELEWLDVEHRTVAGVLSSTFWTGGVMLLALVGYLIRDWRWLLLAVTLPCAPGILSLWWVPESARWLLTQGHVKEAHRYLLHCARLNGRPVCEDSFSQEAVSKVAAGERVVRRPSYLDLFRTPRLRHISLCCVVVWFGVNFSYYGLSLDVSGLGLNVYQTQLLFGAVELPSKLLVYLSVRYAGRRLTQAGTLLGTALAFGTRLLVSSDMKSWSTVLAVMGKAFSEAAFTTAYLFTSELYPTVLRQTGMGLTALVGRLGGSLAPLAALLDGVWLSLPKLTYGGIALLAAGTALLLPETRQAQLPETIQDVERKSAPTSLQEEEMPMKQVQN

[2] = target: T1, OAT2-tv1; test: Inhibition of [3H]penciclovir uptake into CHO-OAT2-tv1 cells; assay type: cell-based; conditions: CHO-OAT2-tv1 cells; test compound 1 mM; [3H]penciclovir ∼30 nM; 5 min
Method: (§1) All experiments examining cellular radiolabeled compound uptake were conducted using cells grown to confluence in 24-well flat bottom plates. The transport solution consisted of WB (room temperature) containing radiolabeled compound and the uptake period for all experiments was at an initial rate time point of 5 min. [^3H]Penciclovir served as the probe OAT2 substrate. We also examined the uptake of [^3H]para-aminohippurate, [^3H]estrone-3-sulfate, [^14C]glutarate, [^14C]succinate, [^3H]paclitaxel, and [^3H]dehydroepiandrosterone sulfate by OAT2 since published studies indicate that they are substrates of the transport protein ([Sun et al., 2001]; [Kobayashi et al., 2005a]). […] For all cellular uptake experiments, the medium was aspirated and the cells were rinsed once with WB (0.3 ml). Following the uptake period, cells were washed three times with ice-cold WB (0.5 ml each wash). After aspirating the final wash the cells were lysed in 0.5 N NaOH/1% SDS (0.4 ml) for ∼30 min on an orbital shaker. 1 N HCl (0.2 ml) was then added to neutralize the NaOH, and the cell lysates (0.5 ml) were transferred to scintillation vials containing liquid scintillation cocktail (CytoScint ES, MP Biomedicals). Cellular radioactivity content was determined with a Beckman LS6500 liquid scintillation counter. Protein content was determined using the bicinchoninic acid method. See the Figure and Table Legends for additional details describing the experimental conditions used.
The concentration of each Kreb’s cycle intermediate was 1 mM. Uptake was conducted for 5 min.

[3] = tested on: OAT2 (sequence not given); conditions: variant unclear; ref Sun et al., 2001; cited from earlier work
[4] = tested on: CHO parental cells; test: Cellular accumulation of radiolabeled compounds in CHO parental cells; assay type: cell-based, Chinese hamster; conditions: [3H]dehydroepiandrosterone sulfate 12 nM, [3H]paclitaxel 22 nM, n = 3
[5] = target: T1, OAT2-tv1; test: Cellular uptake of radiolabeled compounds by CHO, HEK or MDCK cells stably expressing OAT2-tv1
Method: as §1
FIGURE 2 Cellular accumulation of [^3H]penciclovir (A), [^3H]para-aminohippurate (B), [^3H]estrone-3-sulfate (C), or [^14C]glutarate (D) by parental CHO, HEK, or MDCK cells, or CHO, HEK, or MDCK cells stably expressing either OAT2-tv1 or OAT2-tv2. The concentration of [^3H]penciclovir in the transport solution was 0.1 μM for CHO and MDCK cell experiments, and 0.5 μM for HEK cell experiments. The concentrations of [^3H]para-aminohippurate, [^3H]estrone-3-sulfate and [^14C]glutarate were 8 nM, 10 nM, and 18 μM, respectively. Uptake was conducted for 5 min at room temperature.
FIGURE 4 Cellular accumulation of [^14C]succinate (18.5 μM) by CHO parental cells, CHO-OAT2-tv1 cells or CHO cells stably expressing the Na-dicarboxylate cotransporter 3 (NaDC3). Uptake was conducted for 5 min. Values are the mean ± standard error of the mean of four experiments for CHO parental and CHO-OAT2-tv1 cells. A single uptake experiment was performed with CHO-NaDC3 cells.

[6] = target: Na-dicarboxylate cotransporter 3 (NaDC3) (Homo sapiens, UniProt Q8WWT9); conditions: CHO-NaDC3 cells; [14C]succinate 18.5 μM; 5 min; single experiment (n = 1)
Sequence of Na-dicarboxylate cotransporter 3 (NaDC3) (Q8WWT9 whole entry, species assumed): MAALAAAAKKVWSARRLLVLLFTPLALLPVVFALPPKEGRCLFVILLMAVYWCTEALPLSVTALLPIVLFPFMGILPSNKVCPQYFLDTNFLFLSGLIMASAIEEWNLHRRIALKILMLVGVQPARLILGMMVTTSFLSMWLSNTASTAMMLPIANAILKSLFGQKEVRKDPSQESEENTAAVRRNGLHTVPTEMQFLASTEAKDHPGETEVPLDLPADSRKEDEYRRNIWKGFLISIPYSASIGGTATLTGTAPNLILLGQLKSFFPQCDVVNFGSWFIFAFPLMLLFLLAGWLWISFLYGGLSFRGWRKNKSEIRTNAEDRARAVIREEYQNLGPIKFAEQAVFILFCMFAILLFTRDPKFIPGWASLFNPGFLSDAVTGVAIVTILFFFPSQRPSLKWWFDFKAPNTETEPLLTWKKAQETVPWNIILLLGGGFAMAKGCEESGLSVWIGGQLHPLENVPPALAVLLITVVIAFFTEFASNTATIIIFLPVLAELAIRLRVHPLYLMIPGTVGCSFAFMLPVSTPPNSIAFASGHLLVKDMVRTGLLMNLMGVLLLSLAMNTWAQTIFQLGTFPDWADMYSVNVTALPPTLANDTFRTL
Method: as §1, with “See the Figure and Table Legends for additional details describing the experimental conditions used.” left out

[7] = tested on: OAT2-tv3; design: method as in Sato et al., 2010; conditions: OAT2-tv3 in HEK cells pre-loaded with succinate (100 mM); ref Sato et al., 2010; cited from earlier work
[8] = target: T2, OAT2-tv2 (Homo sapiens, UniProt Q9Y694); design: method as in Kobayashi et al., 2005a; conditions: OAT2-tv2 in Xenopus oocytes pre-loaded with 5 mM compound; ref Kobayashi et al., 2005a; cited from earlier work
T2 sequence (Q9Y694 1-548): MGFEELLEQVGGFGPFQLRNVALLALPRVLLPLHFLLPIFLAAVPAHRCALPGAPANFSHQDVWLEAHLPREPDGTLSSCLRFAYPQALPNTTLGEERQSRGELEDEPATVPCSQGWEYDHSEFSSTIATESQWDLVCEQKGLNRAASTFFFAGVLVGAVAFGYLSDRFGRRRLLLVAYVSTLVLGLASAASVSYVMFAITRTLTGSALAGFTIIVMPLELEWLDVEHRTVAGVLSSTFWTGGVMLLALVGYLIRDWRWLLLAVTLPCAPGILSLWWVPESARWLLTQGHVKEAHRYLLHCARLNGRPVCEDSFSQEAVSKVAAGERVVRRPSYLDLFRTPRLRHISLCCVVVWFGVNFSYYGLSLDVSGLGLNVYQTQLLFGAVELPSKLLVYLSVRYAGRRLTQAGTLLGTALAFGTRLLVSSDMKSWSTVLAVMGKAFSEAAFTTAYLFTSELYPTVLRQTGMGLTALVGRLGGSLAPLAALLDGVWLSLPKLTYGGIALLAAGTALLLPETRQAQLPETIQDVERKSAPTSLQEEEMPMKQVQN

In the case of `O=C(O)/C=C(/CC(=O)O)C(=O)O` [cis-aconitate], the “cis-inhibition of OAT2-tv1-mediated cGMP transport” value [1] is given as “did not observe cis-inhibition” and the “cis-inhibition of penciclovir uptake” value [2] is given as “none of the Kreb’s cycle intermediates tested, including succinate and fumarate, cis-inhibited penciclovir uptake”.
In the case of `O=C(O)CC(O)(CC(=O)O)C(=O)O` [citrate], the “cis-inhibition of OAT2-tv1-mediated cGMP transport” value [1] is given as “did not observe cis-inhibition” and the “cis-inhibition of penciclovir uptake” value [2] is given as “none of the Kreb’s cycle intermediates tested, including succinate and fumarate, cis-inhibited penciclovir uptake”.
In the case of `C[C@]12CC[C@H](OS(=O)(=O)O)CC1=CC[C@@H]1[C@@H]2CC[C@]2(C)C(=O)CC[C@@H]12` [dehydroepiandrosterone sulfate], the “transport by OAT2” value [3] is given as “did not observe transport”, the cellular accumulation [4] is given as 10.3 ± 1.1 fmoles ⋅ mg protein^-1 ⋅ min^-1 and the cellular accumulation ([5]; CHO-OAT2-tv1 cells, [3H]dehydroepiandrosterone sulfate 12 nM, [3H]paclitaxel 22 nM, n = 3) is given as 11.0 ± 0.54 fmoles ⋅ mg protein^-1 ⋅ min^-1. For the same compound, the “mediated transport by OAT2-tv1” value ([5]; expressed in CHO cells) was “unable to show mediated transport”.
For `O=C(O)CCC(=O)O` [succinate], the “uptake of [14C]succinate, fold higher than control” value [6] is given as ~30 fold, the “stimulation of urate uptake by pre-loading” value [7] is given as “failed to observe stimulation” and the “stimulation of estrone-3-sulfate uptake by pre-loading” value [8] is given as 2.1 fold. For the same compound, the “cis-inhibition of penciclovir uptake” value [2] was “none of the Kreb’s cycle intermediates tested, including succinate and fumarate, cis-inhibited penciclovir uptake” and the “uptake of [14C]succinate compared to parental CHO cells” value ([5]; CHO-OAT2-tv1 cells, [14C]succinate 18.5 μM, 5 min) was “not different than uptake into the parental CHO cells; also recorded: no significant difference; also recorded: not transported”.
